Like-named read-outs stand apart in the source and are kept apart here.
Legend:
[1] = biological target: human growth hormone secretagogue receptor (hGHS-R1a) (Homo sapiens, UniProt Q92847); test: Competitive radioligand binding assay (ghrelin receptor), standard method A; settings: binding activity at the human ghrelin receptor, standard method A
CYP1A2 = biological target: T1, CYP1A2 (Homo sapiens, UniProt P05177); test: Cytochrome P450 inhibition, CYP1A2; format: in vitro ADME; settings: read-out: IC50 1A2
T1 construct: purchased BD Gentest, Becton-Dickinson (Supersomes); host or cells: insect cells
T1 sequence (P05177 1-516): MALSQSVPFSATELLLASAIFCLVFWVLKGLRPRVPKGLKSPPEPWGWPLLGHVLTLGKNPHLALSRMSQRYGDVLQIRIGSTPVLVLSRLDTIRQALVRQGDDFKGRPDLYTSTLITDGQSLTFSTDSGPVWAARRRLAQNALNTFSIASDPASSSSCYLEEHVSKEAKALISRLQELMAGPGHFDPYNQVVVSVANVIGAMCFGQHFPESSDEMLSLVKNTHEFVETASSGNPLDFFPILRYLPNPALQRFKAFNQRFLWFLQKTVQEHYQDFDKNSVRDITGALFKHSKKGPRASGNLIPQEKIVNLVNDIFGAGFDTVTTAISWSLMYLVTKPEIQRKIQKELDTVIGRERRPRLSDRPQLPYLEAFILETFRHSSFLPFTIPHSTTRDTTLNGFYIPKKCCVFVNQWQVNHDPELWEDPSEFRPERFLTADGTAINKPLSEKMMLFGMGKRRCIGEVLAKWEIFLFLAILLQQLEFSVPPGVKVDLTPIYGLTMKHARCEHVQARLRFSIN
From the text: (§1) K. Assay for Cytochrome P450 Inhibition
(§2) Cytochrome P450 enzymes are implicated in the phase I metabolism of drugs. The majority of drug-drug interactions are metabolism-based and, moreover, these interactions typically involve inhibition of cytochrome P450s. Six CYP450 enzymes (CYP1A2, CYP2C8, CYP2C9, CYP2C19, CYP2D6 and CYP3A4) appear to be commonly responsible for the metabolism of most drugs and the associated drug-drug interactions. Assays to determine the binding of compounds of the invention to the various metabolically important isoforms of cytochrome P450 metabolizing enzymes are commercially available, for example NoAb BioDiscoveries (Mississaugua, ON, Canada) and Absorption Systems (Exton, Pa., USA). As well, a number of appropriate methods have been described or reviewed in the literature. (White, R. E. Ann. Rev. Pharmacol. Toxicol. 2000, 40, 133-157; Li, A. P. Drug. Disc. Today 2001, 6, 357-366; Turpeinen, M.; Korhonen, L. E. Tolonen, A.; et al. Eur. J. Pharm. Sci, 2006, 29, 130-138.)
(§3) The key aspects of the experimental method were as follows: • 1. […] Assays monitored, via fluorescence detection, the formation of a fluorescent metabolite following incubation of the microsomes with a specific CYP substrate. • 3. Compounds of the present invention were tested in duplicate samples at eight test concentrations using 3-fold serial dilutions (concentration range of 0.0457 to 100 μM). • 4. For each CYP-450 enzyme, a specific inhibitor was tested in duplicate at eight concentrations as a positive control. • 5. The concentration of the inhibitor or test compound that inhibited metabolite formation by 50% (IC50) was calculated by non-linear regression analysis of the % inhibition vs. log concentration (M) curve.

CYP2A6 = biological target: T2, CYP2A6 (Homo sapiens, UniProt P11509); test: Cytochrome P450 inhibition, CYP2A6; format: in vitro ADME; settings: read-out: IC50 2A6
T2 construct: purchased BD Gentest, Becton-Dickinson (Supersomes); host or cells: insect cells
T2 sequence (P11509 1-494): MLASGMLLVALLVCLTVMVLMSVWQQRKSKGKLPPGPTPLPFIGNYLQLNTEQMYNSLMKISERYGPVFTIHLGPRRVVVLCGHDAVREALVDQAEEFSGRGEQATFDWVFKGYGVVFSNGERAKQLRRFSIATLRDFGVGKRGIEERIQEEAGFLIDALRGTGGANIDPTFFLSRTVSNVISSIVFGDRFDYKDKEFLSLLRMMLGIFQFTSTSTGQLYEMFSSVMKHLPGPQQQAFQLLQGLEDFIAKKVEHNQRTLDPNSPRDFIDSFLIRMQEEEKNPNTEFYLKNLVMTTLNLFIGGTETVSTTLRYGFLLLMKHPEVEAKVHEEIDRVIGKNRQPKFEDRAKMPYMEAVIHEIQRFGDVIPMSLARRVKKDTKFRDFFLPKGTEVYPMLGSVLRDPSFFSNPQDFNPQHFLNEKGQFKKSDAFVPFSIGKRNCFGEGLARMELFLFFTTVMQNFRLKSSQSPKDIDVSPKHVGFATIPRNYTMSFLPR
From the text: as §1, §2, §3

CYP2B6 = biological target: T3, CYP2B6 (Homo sapiens, UniProt P20813); test: Cytochrome P450 inhibition, CYP2B6; format: in vitro ADME; settings: read-out: IC50 2B6
T3 construct: purchased BD Gentest, Becton-Dickinson (Supersomes); host or cells: insect cells
T3 sequence (P20813 1-491): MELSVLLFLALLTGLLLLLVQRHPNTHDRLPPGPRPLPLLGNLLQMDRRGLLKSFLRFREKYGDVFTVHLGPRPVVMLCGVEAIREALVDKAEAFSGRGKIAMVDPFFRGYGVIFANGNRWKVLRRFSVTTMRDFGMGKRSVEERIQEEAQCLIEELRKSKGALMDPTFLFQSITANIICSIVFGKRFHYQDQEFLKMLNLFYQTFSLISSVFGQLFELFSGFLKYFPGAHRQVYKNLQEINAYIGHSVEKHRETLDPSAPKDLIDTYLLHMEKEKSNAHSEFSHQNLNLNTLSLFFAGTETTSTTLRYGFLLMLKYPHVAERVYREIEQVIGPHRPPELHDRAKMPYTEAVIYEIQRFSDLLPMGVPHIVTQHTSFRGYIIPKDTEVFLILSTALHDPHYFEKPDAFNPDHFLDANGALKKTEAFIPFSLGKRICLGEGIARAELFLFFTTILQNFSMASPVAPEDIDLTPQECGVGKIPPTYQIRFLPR
From the text: as §1, §2, §3

CYP2C8 = biological target: T4, CYP2C8 (Homo sapiens, UniProt P10632); test: Cytochrome P450 inhibition, CYP2C8; format: in vitro ADME; settings: read-out: IC50 2C8
T4 construct: purchased BD Gentest, Becton-Dickinson (Supersomes); host or cells: insect cells
T4 sequence (P10632 1-490): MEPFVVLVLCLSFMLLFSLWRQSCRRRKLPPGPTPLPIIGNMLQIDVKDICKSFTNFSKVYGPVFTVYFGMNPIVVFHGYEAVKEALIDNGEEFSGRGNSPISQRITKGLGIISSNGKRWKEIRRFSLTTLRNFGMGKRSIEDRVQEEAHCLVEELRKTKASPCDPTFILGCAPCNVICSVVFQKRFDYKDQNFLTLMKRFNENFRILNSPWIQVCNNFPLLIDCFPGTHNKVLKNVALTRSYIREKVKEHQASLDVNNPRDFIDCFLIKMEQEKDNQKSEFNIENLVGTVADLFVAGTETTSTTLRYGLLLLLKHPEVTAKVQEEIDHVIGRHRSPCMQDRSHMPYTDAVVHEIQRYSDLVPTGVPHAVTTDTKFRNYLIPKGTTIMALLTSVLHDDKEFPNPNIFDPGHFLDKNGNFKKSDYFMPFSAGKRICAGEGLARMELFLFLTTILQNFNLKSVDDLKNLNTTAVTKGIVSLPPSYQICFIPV
From the text: as §1, §2, §3

CYP2C9 = biological target: T5, CYP2C9 (Homo sapiens, UniProt P11712); test: Cytochrome P450 inhibition, CYP2C9; format: in vitro ADME; settings: read-out: IC50 2C9
T5 construct: purchased BD Gentest, Becton-Dickinson (Supersomes); host or cells: insect cells
From the text: as §1, §2, §3

CYP2C19 = biological target: T6, CYP2C19 (Homo sapiens, UniProt P33261); test: Cytochrome P450 inhibition, CYP2C19; format: in vitro ADME; settings: read-out: IC50 2C19
T6 construct: purchased BD Gentest, Becton-Dickinson (Supersomes); host or cells: insect cells
From the text: as §1, §2, §3

CYP2D6 = biological target: T7, CYP2D6 (Homo sapiens, UniProt P10635); test: Cytochrome P450 inhibition, CYP2D6; format: in vitro ADME; settings: read-out: IC50 2D6
T7 construct: purchased BD Gentest, Becton-Dickinson (Supersomes); host or cells: insect cells
From the text: as §1, §2, §3

CYP2E1 = biological target: T8, CYP2E1 (Homo sapiens, UniProt P05181); test: Cytochrome P450 inhibition, CYP2E1; format: in vitro ADME; settings: read-out: IC50 2E1
T8 construct: purchased BD Gentest, Becton-Dickinson (Supersomes); host or cells: insect cells
From the text: as §1, §2, §3

CYP3A4 = biological target: T9, CYP3A4 (Homo sapiens, UniProt P08684); test: Cytochrome P450 inhibition, CYP3A4 (two substrates); format: in vitro ADME
T9 construct: purchased BD Gentest, Becton-Dickinson (Supersomes); host or cells: insect cells
From the text: as §1, §2, §3

T9 sequence (P08684 whole entry): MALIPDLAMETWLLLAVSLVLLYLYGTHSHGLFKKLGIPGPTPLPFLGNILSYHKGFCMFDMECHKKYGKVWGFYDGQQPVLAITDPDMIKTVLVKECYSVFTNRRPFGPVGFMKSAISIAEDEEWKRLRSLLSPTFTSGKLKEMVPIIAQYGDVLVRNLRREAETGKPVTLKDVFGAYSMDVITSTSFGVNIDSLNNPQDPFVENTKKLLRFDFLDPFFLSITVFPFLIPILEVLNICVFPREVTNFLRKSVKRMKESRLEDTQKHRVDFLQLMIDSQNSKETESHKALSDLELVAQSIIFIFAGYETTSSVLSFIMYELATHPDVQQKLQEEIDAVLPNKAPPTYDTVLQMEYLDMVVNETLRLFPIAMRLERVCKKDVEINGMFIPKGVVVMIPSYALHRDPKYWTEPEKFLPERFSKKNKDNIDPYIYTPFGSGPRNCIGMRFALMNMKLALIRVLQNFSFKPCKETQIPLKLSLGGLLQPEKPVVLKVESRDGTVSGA
T7 sequence (P10635 whole entry): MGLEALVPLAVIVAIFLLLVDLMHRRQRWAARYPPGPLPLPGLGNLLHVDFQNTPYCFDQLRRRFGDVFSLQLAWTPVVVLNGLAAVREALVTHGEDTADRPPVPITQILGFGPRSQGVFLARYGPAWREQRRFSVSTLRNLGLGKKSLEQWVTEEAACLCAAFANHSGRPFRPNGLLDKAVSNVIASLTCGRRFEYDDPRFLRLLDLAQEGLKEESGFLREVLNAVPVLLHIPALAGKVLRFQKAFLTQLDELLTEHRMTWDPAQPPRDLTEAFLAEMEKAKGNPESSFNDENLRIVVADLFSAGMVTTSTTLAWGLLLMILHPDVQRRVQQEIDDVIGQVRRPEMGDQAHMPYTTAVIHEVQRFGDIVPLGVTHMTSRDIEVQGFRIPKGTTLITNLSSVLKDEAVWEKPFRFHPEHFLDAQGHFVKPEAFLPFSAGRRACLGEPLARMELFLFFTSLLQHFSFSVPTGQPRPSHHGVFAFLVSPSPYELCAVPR
T5 sequence (P11712 whole entry): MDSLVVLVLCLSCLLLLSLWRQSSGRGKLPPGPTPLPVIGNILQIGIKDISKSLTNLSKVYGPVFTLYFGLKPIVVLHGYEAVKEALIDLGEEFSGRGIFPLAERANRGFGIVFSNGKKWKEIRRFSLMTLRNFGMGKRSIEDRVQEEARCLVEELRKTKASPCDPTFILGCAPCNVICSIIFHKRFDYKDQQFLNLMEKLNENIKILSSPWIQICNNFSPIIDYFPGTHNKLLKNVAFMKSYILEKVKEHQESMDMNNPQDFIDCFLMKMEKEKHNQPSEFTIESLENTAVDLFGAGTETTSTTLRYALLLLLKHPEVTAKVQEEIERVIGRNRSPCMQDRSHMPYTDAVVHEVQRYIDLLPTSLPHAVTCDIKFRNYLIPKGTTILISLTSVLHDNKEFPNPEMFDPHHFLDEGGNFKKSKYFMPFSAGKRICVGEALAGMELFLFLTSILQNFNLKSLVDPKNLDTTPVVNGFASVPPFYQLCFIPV
Sequence of human growth hormone secretagogue receptor (hGHS-R1a) (Q92847 whole entry): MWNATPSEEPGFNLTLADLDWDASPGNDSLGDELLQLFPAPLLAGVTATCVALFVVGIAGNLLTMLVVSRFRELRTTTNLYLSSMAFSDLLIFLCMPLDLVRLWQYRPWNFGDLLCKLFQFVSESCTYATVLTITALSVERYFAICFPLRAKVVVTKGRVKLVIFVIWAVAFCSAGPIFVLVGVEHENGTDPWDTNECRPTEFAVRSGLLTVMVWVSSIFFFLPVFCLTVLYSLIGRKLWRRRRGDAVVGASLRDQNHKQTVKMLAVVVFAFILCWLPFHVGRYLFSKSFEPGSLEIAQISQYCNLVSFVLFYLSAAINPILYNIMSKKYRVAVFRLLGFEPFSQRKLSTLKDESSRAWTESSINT
T8 sequence (P05181 whole entry): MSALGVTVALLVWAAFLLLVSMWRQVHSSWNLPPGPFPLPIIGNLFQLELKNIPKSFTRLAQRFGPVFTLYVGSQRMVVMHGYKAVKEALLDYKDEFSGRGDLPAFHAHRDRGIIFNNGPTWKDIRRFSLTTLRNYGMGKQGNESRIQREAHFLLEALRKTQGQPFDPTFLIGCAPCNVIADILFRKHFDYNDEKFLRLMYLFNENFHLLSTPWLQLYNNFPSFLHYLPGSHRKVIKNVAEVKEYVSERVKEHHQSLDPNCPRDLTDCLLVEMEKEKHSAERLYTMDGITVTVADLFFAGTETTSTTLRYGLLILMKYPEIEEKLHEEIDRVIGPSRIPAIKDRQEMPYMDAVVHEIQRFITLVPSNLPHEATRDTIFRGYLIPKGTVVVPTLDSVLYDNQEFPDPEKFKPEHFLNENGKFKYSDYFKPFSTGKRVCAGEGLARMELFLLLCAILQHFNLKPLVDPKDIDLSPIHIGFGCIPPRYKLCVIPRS
T6 sequence (P33261 whole entry): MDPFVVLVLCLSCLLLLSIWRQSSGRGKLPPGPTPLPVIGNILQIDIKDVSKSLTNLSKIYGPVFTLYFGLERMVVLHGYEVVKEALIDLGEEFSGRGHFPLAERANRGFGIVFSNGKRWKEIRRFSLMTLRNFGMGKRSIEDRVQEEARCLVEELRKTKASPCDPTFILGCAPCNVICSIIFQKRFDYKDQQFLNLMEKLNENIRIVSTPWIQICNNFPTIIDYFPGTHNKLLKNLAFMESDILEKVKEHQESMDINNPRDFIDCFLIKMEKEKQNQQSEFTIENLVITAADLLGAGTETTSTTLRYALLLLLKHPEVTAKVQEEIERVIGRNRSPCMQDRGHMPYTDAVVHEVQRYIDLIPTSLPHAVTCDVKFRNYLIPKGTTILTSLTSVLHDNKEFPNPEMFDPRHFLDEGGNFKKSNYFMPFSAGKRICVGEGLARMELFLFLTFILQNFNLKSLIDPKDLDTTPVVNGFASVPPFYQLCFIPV

Work on `CC(C)C[C@H]1NC(=O)[C@@H](C)N(C)C(=O)[C@H](C2CC2)NCCOc2c(ccc(F)c2F)CCCNC1=O` [Compound 816] yielded a Ki [1] of at most 0.01 µM, an IC50 (CYP1A2) of over 100 µM and an IC50 (CYP2A6) of over 100 µM. For the same molecule, the IC50 (CYP2B6) was over 100 µM, the IC50 (CYP2C8) was over 100 µM and the IC50 (CYP2C9) was over 100 µM. It also gave an IC50 (CYP2C19) of over 100 µM, an IC50 (CYP2D6) of over 100 µM and an IC50 (CYP2E1) of over 100 µM. For the same molecule, the IC50 (CYP3A4; CYP3A4, substrate BFC, read-out: IC50 3A4 (BFC)) was 5.85 µM and the IC50 (CYP3A4; CYP3A4, substrate BQ, read-out: IC50 3A4 (BQ)) was 1.36 µM.
